1 molecule from patent publication EP4745145A1, “SALT OF THIAZOLOPYRAZINE COMPOUND OR CRYSTAL THEREOF AND USE THEREOF” (Simcere Zaiming Pharmaceutical Co., Ltd., priority 2023, dated 2025) can be followed below.

For data set [1], the system named is POLQ-mediated MMEJ pathway. As to the kind of experiment: Inhibition of cellular MMEJ pathway (NanoLuciferase reporter in HEK293T cells). Type of data set: cell-based. Particulars: 24 h. As for the experimental part: Brief introduction to experimental principle: POLQ is a key protein in the repair process of cellular MMEJ. The NanoLuciferase MMEJ repair reporter system was transferred into HEK293T cells. When the MMEJ repair pathway was normally performed in the cells, the NanoLuciferase reporter protein was correctly expressed, and the cell luminescence signal could be detected. The decrease in cell luminescence was measured using a BMG multifunctional microplate reader from BMG LABTECH to reflect the inhibition of the compound on the cellular MMEJ pathway.
Experimental methods: The test compound was diluted to different concentrations with dimethyl sulfoxide (DMSO) using an Echo 655 pipetting system and transferred to a 384-well plate. In the reaction system, the compound was serially diluted 3-fold from the final concentration of 10 µM. The final concentration of DMSO was 0.1%. HEK293T cells were collected, an MMEJ luciferase […] was transferred to the cells using a Neon transfection system, and the transfected HEK293T cells at 4000 cells/well were diluted with a DMEM medium containing 10% FBS and added to a 384-well plate (25 µL/well).
The compound inhibition rate was calculated and fitted using XLfit software to give the IC50 of the compounds. A Blank well and a DMSO well were set in the experiment.

The subject of a further data set is DLD-1 BRCA2 (-/-) cells. As to the kind of experiment: Inhibition of tumor cell proliferation (CTG, 7 days). Type of data set: cell-based. The protocol: (§1) Brief introduction to experimental principle: After the compound was co-incubated with tumor cells for 7 days, the ATP in viable cells was quantified using the CTG kit from Promega to reflect the effect of the compound on tumor cell proliferation.
(§2) Experimental methods: DLD-1 parent cells or DLD-1 BRCA2 (-/-) cells were diluted with an RPMI 1640 medium containing 10% FBS and then added to a 96-well plate (90 µL/well), with the number of cells being 600/well or 1200/well, respectively, and incubated overnight in an incubator at 37 °C with 5% CO2. The test compound was diluted to different concentrations with dimethyl sulfoxide (DMSO) and then added to a 96-well plate, such that, in the reaction system, the compound was serially diluted 4-fold from the final concentration of 25 µM. The concentration range of the compound was from 25 µM to 0.0004 µM, and the final concentration of DMSO was 0.25% v/v. After incubation for 7 days, 50 µL/well of CTG was added, and the mixture was incubated at room temperature for 10 min. The luminescence (Lum) signal value was read using an Envision microplate reader, and the inhibition rate and half inhibitory concentration (IC50) were calculated.
(§3) A Blank well and a DMSO well were set in the experiment. […] Inhibition rate = 100 × (Lummax−Lumcompound)/(Lummax−Lummin)% [formula] wherein Lummax refers to the luminescence signal value of the well containing cells and 0.25% v/v DMSO, and Lumcompound refers to the luminescence signal value of the well containing the compound and cells. Lummin refers to the luminescence signal value of the well containing the medium and 0.25% v/v DMSO.

Another data set has as its system DLD-1 parent cells. The description is as above. It counts as cell-based. As to conditions: Homo sapiens, DLD-1, 168 h; 7 days incubation. As for the experimental part:
as §1, §2, §3

The test system of a further data set is hepatocytes. The data set is described as follows: Metabolic stability in hepatocytes. Type of data set: in vitro ADME. Particulars: hepatocytes of various species. The protocol: The metabolic stability of the compounds of the present disclosure in hepatocytes was determined by the following test method.
• 1. Human hepatocytes (Biopredic BQHPCH10), cynomolgus monkey hepatocytes (RILD HP-SXH-02M), Beagle dog hepatocytes (BioIVT M00205), SD rat hepatocytes (BioIVT M00005), and CD-1 mouse hepatocytes (BioIVT M00505) • 2. AOPI stain (Nexcelom 200710-01-01) • 3. Dexamethasone (NIFDC 100129-201506) • 4. DPBS (10×) (Gibco by Life Technologies 2060570) • 5. Fetal bovine serum (FBS) (Corning 35081001) • 6. GlutaMAXTM-1 (100×) (Gibco by Life Technologies 2186980) • 7. HEPES (Sigma RNBJ1276) • 8. Human recombinant insulin (Gibco by Life Technologies 2090407) • 9. Isotonic Percoll (GE Healthcare 10288259) • 10. Verapamil (Sigma MKBV4993V) • 11. Williams' Medium E (Sigma RNBJ3314) • 12. […]
All data were calculated by Microsoft Excel software. The peak area was detected through an extracted ion chromatogram. The in vitro half-life (t1/2) of the compound was determined by performing linear fitting of the natural logarithm of elimination percent of the compound and time.
In vitro half-life (t1/2) was calculated by the slope: in vitro t1/2 = 0.693/k [formula]
The in vitro intrinsic clearance (unit: µL/min/mg protein) was calculated using the following formula: in vitro CLint = k × volume of incubation (μL)/amount of proteins (mg) [formula] […]

What is called IC50 is the concentration that inhibits the measured activity by half. Turning to `COc1ccc(Cl)cc1-c1cc(C)ncc1C(=O)Nc1nc2ncc(-c3ccc(C#N)cc3)nc2s1` [Compound of formula I, 4-(5-chloro-2-methoxyphenyl)-N-[6-(4-cyanophenyl)thiazolo[4,5-b]pyrazin-2-yl]-6-methylnicotinamide], the “inhibitory activity on the POLQ-mediated MMEJ pathway in cells” value in data set [1] is given as “strong inhibitory activity”. In addition, in the data set on DLD-1 BRCA2 (-/-) cells, the “inhibitory effect on tumor cells with BRCA2 mutation” value is on record as “good inhibitory effect” and the selectivity result is “good selectivity”. Moreover, the IC50 in the data set with DLD-1 BRCA2 (-/-) cells (Homo sapiens, DLD-1, 168 h, 7 days incubation) was under 0.2 µM. In addition, the IC50 with DLD-1 parent cells was at least 10 µM. Also, in the data set with hepatocytes, the “metabolic stability in hepatocytes” value was “metabolically stable”.
